Assay results taken from patent EP4800015A1, “AZABICYCLO DERIVATIVE AND PREPARATION METHOD THEREFOR, AND USE” (Zhejiang Hisun Pharmaceutical Co., Ltd., priority 2023, dated 2025).

Key:
recombinant human WRN = target: T1, recombinant human WRN (Homo sapiens, UniProt Q14191); experiment: Inhibition of WRN enzyme activity (ATPase), ADP-Glo Kinase Assay; format: biochemical; settings: WRN protein 5 nM, Flap 0.1 nM, ATP 30 µM; read-out: IC50
T1 construct: purchased BPS 101264
How it was run: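 ATPase activity was measured by ADP-Glo luminescence after a 10-min room-temperature reaction with 30 µM ATP and 0.1 nM Flap26 oligonucleotide substrate. The 5 nM WRN had first been exposed to compound (0.004–1000 nM) for 15 min in pH 7.5 Tris buffer with 2 mM MgCl2. IC50 values came from log-concentration regression against the DMSO control.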

[1] = Caco-2 bidirectional permeability and efflux ratio; format: in vitro ADME; settings: human, Caco-2, 10 µM, 120 minutes
Procedure: (§1) The bidirectional permeability and efflux ratio of the example compounds and control compound were determined in a Caco-2 monolayer cell model.
(§2) Caco-2 cells (cultured at Shanghai Medicilon Inc.) were recovered in the experiment. After the cells were in good condition, they were digested, and the cell density was adjusted (1 × 10^5 cells/cm^2). Caco-2 cells were seeded into Transwell chambers and placed in 24-well plates for cultivation. After continuous cultivation for about 21 days, TEER values were measured one day before the experiment to ensure formation of a confluent cell monolayer for transport experiments (TEER > 200 Ω·cm^2). Test compounds were diluted from 10 mM stock solutions to 10 µM concentration using transport buffer (HBSS containing BSA) (metoprolol and atenolol were set as positive compounds). For efflux determination, 0.6 mL of compound dilution solution was added to the outer well (side B), and 0.4 mL of blank transport buffer was added to the Transwell chamber. For absorption determination, 0.4 mL of transport buffer containing compound was added to the Transwell chamber, and 0.6 mL of blank transport buffer was added to the outer side. After setup, the 24-well plates were cultivated at 37 °C and 5% CO2 with 95% relative humidity for 120 minutes, and permeability of test compounds from A to B direction or B to A direction was measured, respectively, with two duplicate wells set for each direction. Liquid in Transwell chambers and 24-well plates was collected separately, 60 µL each, and 180 µL of acetonitrile (containing internal standard) was added, vortexed for 1 min, then centrifuged at 4 °C, 10000 rpm for 10 min. The supernatant was taken, filtered through a 0.22 µm membrane, and placed in vials for testing. The content of the compounds in each Transwell chamber and 24-well plate was determined by liquid chromatography-tandem mass spectrometry (LC-MS/MS). Table 4 Permeability data of compounds of the present disclosure

[2] = system: Caco-2 monolayer cell model; experiment: Caco-2 bidirectional permeability and efflux ratio; format: in vitro ADME; settings: Caco-2, conclusion
Procedure: as §1, §2

[3] = Metabolic stability in human liver microsomes; format: in vitro ADME; settings: human liver microsomes 0.5 mg mL^-1, NADPH 1 mM, 0-60 min; read-out: Liver microsomal stability t1/2 (min) Human
Procedure: (§3) The purpose of this study was to investigate the metabolic stability of the compounds of the present disclosure in human and dog liver microsomes.
(§4) The compounds were co-incubated with human (or dog) liver microsomes, and the reaction was initiated by adding coenzyme NADPH (1 mM). At 0, 5, 15, 30, and 60 minutes, 60 µL of incubation solution was removed, and 180 µL of acetonitrile containing internal standard (clopidogrel) was added to quench the reaction, the mixture was shaken for 10 seconds, centrifuged at 10000 rpm for 10 minutes, and the supernatant was taken for analysis by LC-MS/MS. The in vitro intrinsic clearance was calculated based on the elimination half-life of the test compound in the incubation system. Midazolam was used as an internal reference compound, with two parallel incubations for each. Incubation conditions are summarized in Table 6 below: Table 6 Incubation conditions for the example compounds of the present disclosure
(§5) The ratio of the peak area of analyte to internal standard (Aanalyte/AIS) was obtained from the instrument, and the remaining percentage (%Control) was calculated from the ratio of Aanalyte/AIS in non-zero time point samples to zero time samples. Ln (%Control) was plotted against incubation time and linearly fitted. The test compound clearance constant (k, min^-1) and clearance half-life (T1/2, min) were calculated using the following equations. k = −slope [formula] T1/2 = 0.693/k. [formula]

[4] = Metabolic stability in dog liver microsomes; format: in vitro ADME; settings: dog liver microsomes 0.5 mg mL^-1, NADPH 1 mM, 0-60 min; read-out: Liver microsomal stability t1/2 (min) Dog
Procedure: as §3, §4, §5

T1 sequence (Q14191 whole entry): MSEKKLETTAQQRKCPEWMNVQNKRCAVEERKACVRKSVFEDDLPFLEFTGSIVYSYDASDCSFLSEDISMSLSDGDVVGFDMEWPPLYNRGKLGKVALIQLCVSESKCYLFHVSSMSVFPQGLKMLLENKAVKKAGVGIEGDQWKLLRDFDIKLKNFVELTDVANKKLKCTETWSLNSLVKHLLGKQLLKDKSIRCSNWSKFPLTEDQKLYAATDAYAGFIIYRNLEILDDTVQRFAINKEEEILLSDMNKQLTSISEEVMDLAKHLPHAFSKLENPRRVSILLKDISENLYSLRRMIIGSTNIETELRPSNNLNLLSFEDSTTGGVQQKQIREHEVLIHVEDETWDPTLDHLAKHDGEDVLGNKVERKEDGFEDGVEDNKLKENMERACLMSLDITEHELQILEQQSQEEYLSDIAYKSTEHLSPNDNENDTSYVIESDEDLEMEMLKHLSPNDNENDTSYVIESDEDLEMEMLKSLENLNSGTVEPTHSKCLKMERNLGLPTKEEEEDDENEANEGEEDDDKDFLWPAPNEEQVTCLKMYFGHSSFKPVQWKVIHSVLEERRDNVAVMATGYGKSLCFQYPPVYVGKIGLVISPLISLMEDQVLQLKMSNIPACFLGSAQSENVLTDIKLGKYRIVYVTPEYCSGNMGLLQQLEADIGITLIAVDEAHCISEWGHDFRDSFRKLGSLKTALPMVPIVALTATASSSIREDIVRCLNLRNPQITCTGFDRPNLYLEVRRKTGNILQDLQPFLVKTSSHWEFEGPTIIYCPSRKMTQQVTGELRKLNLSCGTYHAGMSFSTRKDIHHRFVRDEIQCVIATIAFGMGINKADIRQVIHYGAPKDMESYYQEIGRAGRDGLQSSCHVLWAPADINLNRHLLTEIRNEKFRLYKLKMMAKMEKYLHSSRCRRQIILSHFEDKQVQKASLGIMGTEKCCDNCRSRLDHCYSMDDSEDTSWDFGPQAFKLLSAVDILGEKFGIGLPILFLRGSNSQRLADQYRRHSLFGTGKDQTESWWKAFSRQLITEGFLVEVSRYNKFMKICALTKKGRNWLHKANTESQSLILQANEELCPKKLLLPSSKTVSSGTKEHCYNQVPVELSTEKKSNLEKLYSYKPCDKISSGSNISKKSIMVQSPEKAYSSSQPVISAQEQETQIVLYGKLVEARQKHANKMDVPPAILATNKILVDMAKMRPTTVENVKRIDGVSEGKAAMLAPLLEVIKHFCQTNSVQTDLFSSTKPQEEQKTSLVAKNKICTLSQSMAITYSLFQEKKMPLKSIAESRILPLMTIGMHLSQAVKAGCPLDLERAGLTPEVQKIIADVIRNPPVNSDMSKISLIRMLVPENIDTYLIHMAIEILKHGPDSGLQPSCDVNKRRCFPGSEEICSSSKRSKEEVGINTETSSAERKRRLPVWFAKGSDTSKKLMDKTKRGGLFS

Work on CCc1c(N2CCN(C(=O)c3ncnc(C)c3O)CC2)c(=O)n2nc(-c3cc4ccccc4s3)nc2n1CC(=O)Nc1ccc(C(F)(F)F)cc1Cl [Example 80, 2-(2-(benzo[b]thiophen-2-yl)-5-ethyl-6-(4-(5-hydroxy-6-methylpyrimidine-4-carbonyl)piperazin-1-yl)-7-oxo-[1,2,4]triazolo[1,5-a]pyrimidin-4(7H)-yl)-N-(2-chloro-4-(trifluoromethyl)phenyl)acet amide] yielded an IC50 (recombinant human WRN) of 0.001 to 0.1 µM, an efflux ratio at 120 min, 10 µM ([1]; read-out: Efflux ratio Papp(B-A)/ Papp(A-B)) of 0.62 and a Papp A→B at 120 min, 10 µM ([1]; A to B) of 3.67 ×10⁻⁶ cm/s. For the same compound, the Papp B→A at 120 min, 10 µM ([1]; B to A) was 2.29 ×10⁻⁶ cm/s, the “efflux (in words)” value [2] was “no significant efflux” and the “permeability (in words)” value [2] was “moderate permeability”. For the same compound, the half-life [3] was 1300 min and the half-life [4] was 637 min.
